What was measured:
[1] = biological target: T1, HCV polymerase (Hepatitis C virus genotype 1b, UniProt Q9WMX2); test: Polymerase assay of Biological Example 1 (IC50 values of Table 3); type: biochemical; settings: IC50 values of Table 3, polymerase assay of Biological Example 1; read-out: NS5B-enzyme3
T1 construct: (His)6 (C); made in house; host or cells: XL-1 cells (E. coli, by own knowledge)

[2] = tested on: HCV replicon I389luc-ubi-neo/NS3-3′/ET in ET (Huh-lucubineo-ET) cells; test: Replicon assay (Biological Example 2), luciferase readout; type: cell-based; settings: Hepatitis C virus
How it was run: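 EC50 values come from Hill fits of % inhibition of replicon-driven firefly luciferase, relative to no-compound wells. Compounds were serially diluted (10 points, 3-fold, 0.1 nM–50 μM final, 0.5% DMSO) onto ET replicon cells and read after 48 h.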

[3] = ET cells, luciferase activity 48 hours after compound

| Structure (SMILES) | IC50 [1] | IC50 [2, 3] | IC50 ([2]; between 100 nM and 5.0 uM) |
| --- | --- | --- | --- |
| C[C@@H]1CN(c2ccc(S(=O)(=O)N3CC(=O)N(c4cc(-c5ccccc5)sc4C(=O)O)[C@H](C4CCCCC4)C3)cn2)CCN1 [Compound 140, 3-{(R)-2-Cyclohexyl-4-[6-((R)-3-methyl-piperazin-1-yl)-pyridine-3-sulfonyl]-6-oxo-piperazin-1-yl}-5-phenyl-thiophene-2-carboxylic acid] | 0.001 µM | ≤ 0.1 µM |  |
| O=C(N[C@H]1CC(=O)N(c2cc(-c3ccccc3)sc2C(=O)O)[C@@H](C2CCCCC2)C1)c1ccccc1 [Compound 25, 3-((2R,4R)-4-Benzoylamino-2-cyclohexyl-6-oxo-piperidin-1-yl)-5-phenyl-thiophene-2-carboxylic acid] | 0.173 µM | ≥ 5 µM |  |
| O=C(O)c1sc(-c2ccccc2)cc1N1C(=O)CN(S(=O)(=O)c2ccc(N3CC[C@@H](O)C3)nc2)CC1C1CCCCC1 (stereo partly drawn) [Compound 123, 3-{2-Cyclohexyl-4-[6-((R)-3-hydroxy-pyrrolidin-1-yl)-pyridine-3-sulfonyl]-6-oxo-piperazin-1-yl}-5-phenyl-thiophene-2-carboxylic acid] | 0.002 µM | ≤ 0.1 µM |  |
| CC(C)(C)C#Cc1cc(N2C(=O)CCC[C@H]2C2CCCCC2)c(C(=O)O)s1 [Compound 35, 3-((S)-2-Cyclohexyl-6-oxo-piperidin-1-yl)-5-(3,3-dimethyl-but-1-ynyl)-thiophene-2-carboxylic acid] | 0.0095 µM | ≤ 0.1 µM |  |
| O=C(O)c1sc(-c2ccccc2)cc1N1C(=O)CN(S(=O)(=O)c2ccc(C3=CCCC3)nc2)C[C@H]1C1CCCCC1 [Compound 215, 3-[(R)-2-Cyclohexyl-4-(6-cyclopent-1-enyl-pyridine-3-sulfonyl)-6-oxo-piperazin-1-yl]-5-phenyl-thiophene-2-carboxylic acid] | 0.002 µM |  | 0.1 to 5 µM |
| O=C(O)c1sc(-c2ccccc2)cc1N1C(=O)CN(S(=O)(=O)c2ccc(N3CCSCC3)nc2)CC1C1CCCCC1 (stereo not shown) [Compound 79, 3-[2-Cyclohexyl-6-oxo-4-(6-thiomorpholin-4-yl-pyridine-3-sulfonyl)-piperazin-1-yl]-5-phenyl-thiophene-2-carboxylic acid] | 0.004 µM | ≤ 0.1 µM |  |
| CC1(NC(=O)OC(C)(C)C)CCN(c2ccc(S(=O)(=O)N3CC(=O)N(c4cc(-c5ccccc5)sc4C(=O)O)[C@H](C4CCCCC4)C3)cn2)CC1 [Compound 153, 3-[(R)-4-(4-tert-Butoxycarbonylamino-4-methyl-3,4,5,6-tetrahydro-2H-[1,2′]bipyridinyl-5′-sulfonyl)-2-cyclohexyl-6-oxo-piperazin-1-yl]-5-phenyl-thiophene-2-carboxylic acid] | 0.004 µM |  | 0.1 to 5 µM |
| CC(C)(C)OC(=O)N[C@H]1CCCN(c2ccc(S(=O)(=O)N3CC(=O)N(c4cc(-c5ccccc5)sc4C(=O)O)[C@H](C4CCCCC4)C3)cn2)C1 [Compound 158, 3-[(R)-4-((S)-3-tert-Butoxycarbonylamino-3,4,5,6-tetrahydro-2H-[1,2′]bipyridinyl-5′-sulfonyl)-2-cyclohexyl-6-oxo-piperazin-1-yl]-5-phenyl-thiophene-2-carboxylic acid] | 0.002 µM | ≤ 0.1 µM |  |
| O=C(O)c1sc(-c2ccc(Cl)cc2)cc1N1C(=O)COC[C@H]1C1CCCCC1 [Compound 293, 5-(4-Chloro-phenyl)-3-((R)-3-cyclohexyl-5-oxo-morpholin-4-yl)-thiophene-2-carboxylic acid] | 0.005 µM |  | 0.1 to 5 µM |
| COC1CCN(c2ccc(S(=O)(=O)N3CC(=O)N(c4cc(-c5ccccc5)sc4C(=O)O)C(C4CCCCC4)C3)cn2)CC1 (stereo not shown) [Compound 94, 3-[2-Cyclohexyl-4-(4-methoxy-3,4,5,6-tetrahydro-2H-[1,2′]bipyridinyl-5′-sulfonyl)-6-oxo-piperazin-1-yl]-5-phenyl-thiophene-2-carboxylic acid] | 0.002 µM | ≤ 0.1 µM |  |
| C[C@@H](O)C[C@H]1OC[C@@H](C2CCCCC2)N(c2cc(C#CC(C)(C)C)sc2C(=O)O)C1=O [Compound 336, 3-[(2R,5R)-5-Cyclohexyl-2-((R)-2-hydroxy-propyl)-3-oxo-morpholin-4-yl]-5-(3,3-dimethyl-but-1-ynyl)-thiophene-2-carboxylic acid] | 0.003 µM | ≤ 0.1 µM |  |
| O=C(O)CCS(=O)(=O)N1CC(=O)N(c2cc(-c3ccccc3)sc2C(=O)O)C(C2CCCCC2)C1 (stereo not shown) [Compound 41, 3-[4-(2-Carboxy-ethanesulfonyl)-2-cyclohexyl-6-oxo-piperazin-1-yl]-5-phenyl-thiophene-2-carboxylic acid] | 0.218 µM | ≥ 5 µM |  |
| CCCCCS(=O)(=O)N1CC(=O)N(c2cc(-c3ccccc3)sc2C(=O)O)C(C2CCCCC2)C1 (stereo not shown) [Compound 31, 3-[2-Cyclohexyl-6-oxo-4-(pentane-1-sulfonyl)-piperazin-1-yl]-5-phenyl-thiophene-2-carboxylic acid] | 0.047 µM |  | 0.1 to 5 µM |
| Cc1nccc(-c2cccc(S(=O)(=O)N3CC(=O)N(c4cc(-c5ccccc5)sc4C(=O)O)C(C4CCCCC4)C3)c2)n1 (stereo not shown) [Compound 63, 3-{2-Cyclohexyl-4-[3-(2-methyl-pyrimidin-4-yl)-benzenesulfonyl]-6-oxo-piperazin-1-yl}-5-phenyl-thiophene-2-carboxylic acid] | 0.042 µM |  | 0.1 to 5 µM |
| C[C@@H]1CCCN1c1ccc(S(=O)(=O)N2CC(=O)N(c3cc(-c4ccccc4)sc3C(=O)O)C(C3CCCCC3)C2)cn1 (stereo partly drawn) [Compound 118, 3-{2-Cyclohexyl-4-[6-((R)-2-methyl-pyrrolidin-1-yl)-pyridine-3-sulfonyl]-6-oxo-piperazin-1-yl}-5-phenyl-thiophene-2-carboxylic acid] | 0.002 µM | ≤ 0.1 µM |  |
| CC1(O)CCN(c2ccc(S(=O)(=O)N3CC(=O)N(c4cc(-c5ccc(F)cc5)sc4C(=O)O)[C@H](C4CCCCC4)C3)cn2)C1 (stereo partly drawn) [Compound 288, 3-{(R)-2-Cyclohexyl-4-[6-(3-hydroxy-3-methyl-pyrrolidin-1-yl)-pyridine-3-sulfonyl]-6-oxo-piperazin-1-yl}-5-(4-fluoro-phenyl)-thiophene-2-carboxylic acid] | 0.002 µM | ≤ 0.1 µM |  |
| CC(C)(C)C#Cc1cc(N2C(=O)CCC2C2CCCCC2)c(C(=O)O)s1 (stereo not shown) [Compound 220, 3-(2-Cyclohexyl-5-oxo-pyrrolidin-1-yl)-5-(3,3-dimethyl-but-1-ynyl)-thiophene-2-carboxylic acid] | 0.015 µM |  | 0.1 to 5 µM |
| CC(C)(C)C#Cc1cc(N2C(=O)OC[C@H]2C2CCCCC2)c(C(=O)O)s1 [Compound 181, 3-((R)-4-Cyclohexyl-2-oxo-oxazolidin-3-yl)-5-(3,3-dimethyl-but-1-ynyl)-thiophene-2-carboxylic acid] | 0.003 µM |  | 0.1 to 5 µM |
| N[C@@H]1CCN(c2ccc(S(=O)(=O)N3CC(=O)N(c4cc(-c5ccccc5)sc4C(=O)O)[C@H](C4CCCCC4)C3)cn2)C1 [Compound 141, 3-{(R)-4-[6-((R)-3-Amino-pyrrolidin-1-yl)-pyridine-3-sulfonyl]-2-cyclohexyl-6-oxo-piperazin-1-yl}-5-phenyl-thiophene-2-carboxylic acid] | 0.002 µM | ≤ 0.1 µM |  |
| N#Cc1ccc(-c2cc(N3C(=O)CCCC3C3CCCCC3)c(C(=O)O)s2)cc1 (stereo not shown) [Compound 129, 5-(4-Cyano-phenyl)-3-(2-cyclohexyl-6-oxo-piperidin-1-yl)-thiophene-2-carboxylic acid] | 0.096 µM |  | 0.1 to 5 µM |
| O=C(O)c1sc(-c2ccccc2)cc1N1C(=O)CN(S(=O)(=O)c2ccc(N3CCN[C@H](CO)C3)nc2)C[C@H]1C1CCCCC1 [Compound 139, 3-{(R)-2-Cyclohexyl-4-[6-((S)-3-hydroxymethyl-piperazin-1-yl)-pyridine-3-sulfonyl]-6-oxo-piperazin-1-yl}-5-phenyl-thiophene-2-carboxylic acid] | 0.001 µM |  | 0.1 to 5 µM |
| O=C(O)c1sc(-c2ccc(F)cc2)cc1N1C(=O)CN(S(=O)(=O)c2ccc(N3CCCCCC3)nc2)C[C@H]1C1CCCCC1 [Compound 285, 3-[(R)-4-(6-Azepan-1-yl-pyridine-3-sulfonyl)-2-cyclohexyl-6-oxo-piperazin-1-yl]-5-(4-fluoro-phenyl)-thiophene-2-carboxylic acid] | 0.002 µM | ≤ 0.1 µM |  |
| O=C(O)c1sc(-c2ccccc2)cc1N1C(=O)CN(S(=O)(=O)c2ccc(NC3CCOCC3)nc2)C[C@H]1C1CCCCC1 [Compound 194, 3-{(R)-2-Cyclohexyl-6-oxo-4-[6-(tetrahydro-pyran-4-ylamino)-pyridine-3-sulfonyl]-piperazin-1-yl}-5-phenyl-thiophene-2-carboxylic acid] | 0.002 µM | ≤ 0.1 µM |  |
| Cc1ccc(-c2cc(N3C(=O)CN(S(=O)(=O)c4ccc(N5CCCOCC5)nc4)C[C@H]3C3CCCCC3)c(C(=O)O)s2)cc1 [Compound 188, 3-[(R)-2-Cyclohexyl-4-(6-[1,4]oxazepan-4-yl-pyridine-3-sulfonyl)-6-oxo-piperazin-1-yl]-5-p-tolyl-thiophene-2-carboxylic acid] | 0.001 µM | ≤ 0.1 µM |  |
| Cc1ccc(S(=O)(=O)N2CC(=O)N(c3cc(C#CC(C)(C)C)sc3C(=O)O)C(C3CCCCC3)C2)cc1 (stereo not shown) [Compound 166, 3-[2-Cyclohexyl-6-oxo-4-(toluene-4-sulfonyl)-piperazin-1-yl]-5-(3,3-dimethyl-but-1-ynyl)-thiophene-2-carboxylic acid] | 0.982 µM | ≥ 5 µM |  |
| CC(C)(C)C#Cc1cc(N2C(=O)[C@@](C)(CCCO)OC[C@H]2C2CCCCC2)c(C(=O)O)s1 [Compound 311, 3-[(2R,5R)-5-Cyclohexyl-2-(3-hydroxy-propyl)-2-methyl-3-oxo-morpholin-4-yl]-5-(3,3-dimethyl-but-1-ynyl)-thiophene-2-carboxylic acid] | 0.002 µM | ≤ 0.1 µM |  |

Reference: US9498483B2, “2,3,5-trisubstituted thiophene compounds and uses thereof” (priority 2010, dated 2016)
